PMC4920673, “Nitroimidazole carboxamides as antiparasitic agents targeting Giardia lamblia, Entamoeba histolytica and Trichomonas vaginalis” (European Journal of Medicinal Chemistry, 2016)
Converted amounts (≈) assume the structure as drawn. Where two headings read alike, the source gives them in different places.

Experiments:
G. lamblia WB (MtzS) = test: ATP-bioluminescence growth/survival EC50 assay, G. lamblia WB; details: for S.I (CC50/EC50): average cytotoxicity against HEK293 and HepG2 / G. lamblia WB activity
Procedure: (§1) Compounds were screened for antiparasitic activity using an ATP-bioluminescence based assay for cell growth and survival, [24]. […] Viable cell numbers were determined in triplicate using the CellTiter-Glo Luminescent Cell Viability Assay.

E. histolytica HM1:IMSS = test: ATP-bioluminescence growth/survival EC50 assay, E. histolytica; format: cell-based, Entamoeba histolytica
Procedure: as §1

[1] = test system: C. difficile 630 (ATCC BAA-1382); test: Broth microdilution MIC assay, C. difficile 630; format: cell-based, Clostridium difficile; details: for MIC: Clostridioides difficile, ATCCBAA1382
Procedure: Clostridium difficile strains (630, ATCC BAA-1382 and NAP1/027, ATCC BAA-1803) were maintained as previously described. The minimum inhibition concentration (MIC) was determined according to the CLSI Methods with modifications in broth and inoculum for C. difficile, [25], [26]. Briefly, compounds and control antibiotics were serially diluted two-fold in 96-well plates (Non-binding surface, Corning). […] C. difficile bacteria from BHIS(TA) agar plates were cultured anaerobically in BHIS at 37 °C overnight. […] An antibiotic standard, a positive growth control (no compound) and a sterility control (no bacteria) were included on each 96 well plate. Plates were covered and incubated at 37 °C for 24 h. MICs for each strain were determined as the lowest concentration without visible growth. […] Median MICs are reported with a range given when the median MIC was between two tested concentrations.

[2] = test system: C. difficile NAP1/027 (ATCC BAA-1803); test: Broth microdilution MIC assay, C. difficile NAP1/027; format: cell-based, Clostridium difficile; details: strain NAP1/027; for MIC: Clostridioides difficile, ATCCBAA1803
Procedure: Clostridium difficile strains (630, ATCC BAA-1382 and NAP1/027, ATCC BAA-1803) were maintained as previously described. The minimum inhibition concentration (MIC) was determined according to the CLSI Methods with modifications in broth and inoculum for C. difficile, [25], [26]. Briefly, compounds and control antibiotics were serially diluted two-fold in 96-well plates (Non-binding surface, Corning). The plates were placed in a Coy anaerobic chamber (5% H2, 10% CO2, 85% N2) overnight to reduce the medium. C. difficile bacteria from BHIS(TA) agar plates were cultured anaerobically in BHIS at 37 °C overnight. […]. Compound concentration ranged from 64 to 0.03 μg/mL. An antibiotic standard, a positive growth control (no compound) and a sterility control (no bacteria) were included on each 96 well plate. Plates were covered and incubated at 37 °C for 24 h. MICs for each strain were determined as the lowest concentration without visible growth. Variance between replicates was typically within one 2-fold dilution. Median MICs are reported with a range given when the median MIC was between two tested concentrations.

HEK293 cells = test: Resazurin cytotoxicity assay, HEK293; format: cell-based, Human
Procedure: (§2) Human HEK293 and HepG2 cells were seeded at 3000 and 5000 cells per well in 384-well plates, respectively. Cells were cultured in Dulbecco's modified Eagle's medium with 10% FBS for 24 h at 37 °C, 5% CO2. A dilution series of compounds was added, with the highest concentration of 100 μM. […] After 24 h incubation with the compounds, 5 μM resazurin was added into each well and incubated at 37 °C for 2 h. As a negative control, 1% Triton X-100 was added into the culture media to lyse all of the cells. The fluorescence intensity was read using Polarstar Omega with excitation/emission 560/590 nm. Data were analysed with GraphPad Prism 6 software (La Jolla, California USA) to calculate CC50 values.

HepG2 cells = test: Resazurin cytotoxicity assay, HepG2; format: cell-based, Human
Procedure: as §2

G. lamblia 713M3 (MtzR) = test: ATP-bioluminescence growth/survival EC50 assay, G. lamblia 713M3; format: cell-based, Giardia lamblia
Procedure: as §1

T. vaginalis F1623 = test: ATP-bioluminescence growth/survival EC50 assay, T. vaginalis; format: cell-based, Trichomonas vaginalis
Procedure: as §1

[3] = Resazurin cytotoxicity assay, HEK293; format: cell-based, Human; details: human, HEK293 cells, 24 h
Procedure: as §2

[4] = Resazurin cytotoxicity assay, HepG2; format: cell-based, Human; details: human, 24 h, highest concentration 100 μM, n = 3, read-out: CC50 Hep G2
Procedure: as §2

[5] = Plasma protein binding by ultrafiltration; format: in vitro ADME; details: human, pooled human plasma (100%), 5 μM, 100% human plasma, 37 °C, 30 min, ultrafiltration; for fraction unbound at 30 min, 5 μM: read-out: Plasma protein binding (% bound); for fraction unbound at 0.5 h, 5 µM: read-out: Plasma protein binding (% bound) (converted)
Procedure: Plasma Protein Binding (PPB) was performed using an Ultrafiltration method, [28]. […] Samples were incubated at […] for 30 min, then centrifuged at 14,000 × g for 8 min, with the clear supernatant transferred to a vial for LC/MS/MS analysis. […] The fraction of unbound compound was calculated by determining the concentration of the filtered sample and the concentration of unfiltered sample. […] LC/MS/MS parameters are detailed in the supplementary information (Supplementary Table 1).

[6] = read-out: EC50 G. lamblia WB, MtzS strain WB, minimum n = 3
[7] = MtzS, minimum n = 3, read-out: EC50 E. histolytica HM1:IMSS
[8] = strain 630, MtzS, median of n = 4
[9] = MtzR strain 713M3, minimum n = 3, read-out: EC50 G. lamblia 713M3
[10] = MtzS, minimum n = 3, read-out: EC50 T. vaginalis F1623
[11] = Giardia duodenalis, read-out: EC50 G. lamblia WB, MtzS strain WB, minimum n = 3
[12] = Giardia duodenalis, read-out: pEC50 ± SE G. lamblia WB, MtzS strain WB (converted)
[13] = Giardia duodenalis, read-out: EC50 G. lamblia 713M3, MtzR strain 713M3, minimum n = 3
[14] = Giardia duodenalis, read-out: pEC50 ± SE G. lamblia 713M3, MtzR strain 713M3 (converted)
[15] = Entamoeba histolytica, read-out: EC50 E. histolytica HM1:IMSS
[16] = Entamoeba histolytica, read-out: pEC50 ± SE E. histolytica HM1:IMSS (converted)
[17] = Trichomonas vaginalis, read-out: EC50 T. vaginalis F1623, MtzS, minimum n = 3
[18] = Trichomonas vaginalis, read-out: pEC50 ± SE T. vaginalis F1623, MtzS (converted)
[19] = strain 630, MtzS, median of n = 4, read-out: MIC C. difficile 630
[20] = highest concentration 100 μM, n = 3, read-out: CC50 HEK 293
[21] = 630 and NAP1/027 strains together or strain not given, read-out: MIC C. difficile

Molecule | pEC50 ± SE G. lamblia WB (G. lamblia WB (MtzS); MtzS strain WB) | S.I (CC50/EC50) (G. lamblia WB (MtzS)) | EC50 (G. lamblia WB (MtzS); [6]) [µM] | pEC50 ± SE E. histolytica HM1:IMSS (E. histolytica HM1:IMSS; MtzS) | EC50 (E. histolytica HM1:IMSS; [7]) [µM] | MIC C. difficile 630 [1, 8] [µg/mL] | CC50 (HEK293 cells) [µM] | CC50 (HepG2 cells) [µM] | EC50 (G. lamblia WB (MtzS); [11]) [µM] | EC50 (G. lamblia WB (MtzS); [12]) [µM] | EC50 (G. lamblia 713M3 (MtzR); [13]) [µM] | EC50 (G. lamblia 713M3 (MtzR); [14]) [µM] | EC50 (E. histolytica HM1:IMSS; [15]) [µM] | EC50 (E. histolytica HM1:IMSS; [16]) [µM] | EC50 (T. vaginalis F1623; [17]) [µM] | EC50 (T. vaginalis F1623; [18]) [µM] | MIC [1, 19] [µg/mL] | MIC [2] [µg/mL] | CC50 at 24 h [3, 20] [µM] | CC50 at 24 h ([4]; HepG2 cells) [µM] | further results
1-(cyclohexylmethyl)-4-nitro-1H-imidazole-2-carboxamide [Compound 13g] | 5.30 ± 0.06 | >20 | 5 | < 4.3 | > 50 | >64 | > 100 | > 100 |  |  |  |  |  |  |  |  |  |  |  |  | MIC C. difficile NAP1/027 [2]: >64 µg/mL
1-(cyclopropylmethyl)-4-nitro-1H-imidazole-2-carboxamide [Compound 13f] | < 4.3 |  | > 50 | < 4.3 | > 50 | >64 | > 100 | > 100 |  |  |  |  |  |  |  |  |  |  |  |  | MIC C. difficile NAP1/027 [2]: >64 µg/mL
Cn1c([N+](=O)[O-])cnc1C(=O)NCc1ccc(OC(F)(F)F)cc1 [Compound 8b, 1-methyl-5-nitro-N-(4-(trifluoromethoxy)benzyl)-1H-imidazole-2-carboxamide] | 5.52 ± 0.03 | >33 | 3 | 4.85 ± 0.02 | 14 | 32 (≈ 93 µM) | > 100 | > 100 |  |  |  |  |  |  |  |  |  |  |  |  | pEC50 ± SE G. lamblia 713M3 (G. lamblia 713M3 (MtzR); MtzR strain 713M3): 5.06 ± 0.29; EC50 (G. lamblia 713M3 (MtzR); [9]): 8.8 µM; pEC50 ± SE T. vaginalis F1623 (T. vaginalis F1623; MtzS): 4.88 ± 0.01; EC50 (T. vaginalis F1623; [10]): 13 µM
Cn1c([N+](=O)[O-])cnc1C(=O)NCc1cccc(OC(F)(F)F)c1 [Compound 8c, 1-methyl-5-nitro-N-(3-(trifluoromethoxy)benzyl)-1H-imidazole-2-carboxamide] | 5.51 ± 0.02 | >32 | 3.1 | 4.77 ± 0.02 | 17 | 32 to 64 | > 100 | > 100 |  |  |  |  |  |  |  |  |  |  |  |  | pEC50 ± SE G. lamblia 713M3 (G. lamblia 713M3 (MtzR); MtzR strain 713M3): 5.84 ± 0.69; EC50 (G. lamblia 713M3 (MtzR); [9]): 1.5 µM; pEC50 ± SE T. vaginalis F1623 (T. vaginalis F1623; MtzS): 5.09 ± 0.09; EC50 (T. vaginalis F1623; [10]): 8.1 µM; MIC C. difficile NAP1/027 [2]: 64 µg/mL (≈ 186 µM)
Cn1c([N+](=O)[O-])cnc1C(=O)NC1CCCCC1 [Compound 8k, N-cyclohexyl-1-methyl-5-nitro-1H-imidazole-2-carboxamide] |  | >20 |  |  |  |  |  |  | 4.9 | 4.9 | 5.1 | 5.01 | 3.7 | 3.72 | 11 | 10.7 | > 64 | > 64 | > 100 | > 100 | fraction unbound at 30 min, 5 μM [5]: ≤ 0.06; fraction unbound at 0.5 h, 5 µM [5]: 0.06
O=C(NC1CCCCC1)c1ncc([N+](=O)[O-])[nH]1 [Compound 12k, N-cyclohexyl-5-nitro-1H-imidazole-2-carboxamide] |  | >167 |  |  |  |  |  |  |  | 0.603 | 5.5 | 5.5 | 2.8 | 2.82 | 2.4 | 2.45 | 8 (≈ 33.6 µM) | 8 (≈ 33.6 µM) | > 100 | > 100 | MIC [1, 21]: 4 to 16 µg/mL (≈ 16.8 to 67.2 µM); fraction unbound at 30 min, 5 μM [5]: ≤ 0.06; fraction unbound at 0.5 h, 5 µM [5]: 0.01
CNC(=O)c1ncc([N+](=O)[O-])[nH]1 [Compound 12m, N-methyl-5-nitro-1H-imidazole-2-carboxamide] |  | >10 |  |  |  |  |  |  | 9.9 | 10 | > 20 | > 20 | 6.1 | 6.17 | 8.5 | 8.51 | 0.5 to 1 (≈ 2.94 to 5.88 µM) | 1 (≈ 5.88 µM) | > 100 | > 100 | 
O=C(NCCO)c1ncc([N+](=O)[O-])[nH]1 [Compound 12n, N-(2-hydroxyethyl)-5-nitro-1H-imidazole-2-carboxamide] |  |  |  |  |  |  |  |  | > 50 | > 50.1 | > 20 | > 20 | > 50 | > 50.1 | > 20 | > 20 | 8 (≈ 40 µM) | 8 to 16 (≈ 40 to 79.9 µM) | > 100 | > 100 | MIC [1, 21]: 8 to 16 µg/mL (≈ 40 to 79.9 µM)
CN(CCO)C(=O)c1ncc([N+](=O)[O-])[nH]1 [Compound 12o, N-(2-hydroxyethyl)-N-methyl-5-nitro-1H-imidazole-2-carboxamide] |  | >4 |  |  |  |  |  |  | 24 | 24 | > 20 | > 20 | > 50 | > 50.1 | > 20 | > 20 | 2 (≈ 9.34 µM) | 4 (≈ 18.7 µM) | > 100 | > 100 | MIC [1, 21]: 0.5 to 2 µg/mL (≈ 2.33 to 9.34 µM)
O=C(NO)c1nc([N+](=O)[O-])cn1Cc1ccc(OC(F)(F)F)cc1 [Compound 14d, N-hydroxy-4-nitro-1-(4-(trifluoromethoxy)benzyl)-1H-imidazole-2-carboxamide] |  |  |  |  |  |  |  |  | 5.1 | 5.13 |  |  | 10 | 10 |  |  | 16 (≈ 46.2 µM) | 16 (≈ 46.2 µM) | 36 |  | CC50 at 24 h ([3]; read-out: pCC50 ± SE HEK293 (converted)): 36.3 µM; Selectivity index (CC50/EC50) (HEK293 cells; HEK293 CC50 / G. lamblia WB EC50): 7; CC50 at 24 h [4]: > 100 µM; S.I (CC50/EC50), second value of a split cell (HepG2 cells; HepG2 CC50 / G. lamblia WB EC50): > 20
